Laboratory results as given in patent publication US9868748B2, “Thiazolopyrrolidine inhibitors of ROR- γ” (Vitae Pharmaceuticals, Inc., priority 2013, dated 2018).

Experiments:
[1] = molecular target: recombinant RORγ Ligand Binding Domain (LBD) protein (Homo sapiens (Human), UniProt P51449); assay: Radio-Ligand RORγ Binding Assay (Assay 1); conditions: competition with 25-hydroxy [26,27-3H]-cholesterol, SPA; Table 8; read-out: RORγ Binding Ki Range*
Procedure, shortened: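 Scintillation proximity competition binding of 8.6 nM stock 25-hydroxy[26,27-3H]cholesterol to 24 nM stock 6×His-GST-tagged human RORγ LBD, in 50 mM HEPES pH 7.4 with NaCl, MgCl2, glycerol, CHAPS, β-octylglucopyranoside and DTT, room temperature. Inhibition referenced to DMSO and 10 μM T0901317; IC50 by four-parameter fit, converted to Ki using radioligand concentration and KD.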

[2] = molecular target: full-length RORγt in Jurkat cells (Homo sapiens (Human), UniProt P51449); assay: RORγt 5xRORE Assay in Jurkat Cells (Assay 2); format: cell-based; conditions: Nanoluc luciferase reporter, 16-18 hrs, Table 8, read-out: RORγt5X IC50 Range*
Sequence of full-length RORγt in Jurkat cells (P51449 other isoform, or with tags, fused parts or gaps): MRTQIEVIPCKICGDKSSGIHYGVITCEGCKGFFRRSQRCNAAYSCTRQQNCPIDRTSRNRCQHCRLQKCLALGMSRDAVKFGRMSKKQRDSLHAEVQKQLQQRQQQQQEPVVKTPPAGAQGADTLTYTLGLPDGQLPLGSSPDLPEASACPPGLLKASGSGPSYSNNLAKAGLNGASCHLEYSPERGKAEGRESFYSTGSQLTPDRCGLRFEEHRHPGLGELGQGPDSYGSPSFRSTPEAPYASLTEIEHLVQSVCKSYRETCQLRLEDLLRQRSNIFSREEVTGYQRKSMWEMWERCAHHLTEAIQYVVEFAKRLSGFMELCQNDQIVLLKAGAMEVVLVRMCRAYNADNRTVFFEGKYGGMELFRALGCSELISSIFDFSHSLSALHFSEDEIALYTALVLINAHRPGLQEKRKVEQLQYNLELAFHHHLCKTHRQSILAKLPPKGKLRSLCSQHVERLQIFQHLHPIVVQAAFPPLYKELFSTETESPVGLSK
Procedure, shortened: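 Jurkat cells co-transfected with full-length RORγt expression plasmid and a 5×RORE-driven secreted Nanoluc reporter, then plated at 80,000 cells/well in phenol-red-free RPMI with 10% delipidated FBS. Compounds added at 0.1% DMSO for 16–18 h at 37 °C; supernatant luciferase read for inverse agonism.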

Sequence of recombinant RORγ Ligand Binding Domain (LBD) protein (P51449 269-508): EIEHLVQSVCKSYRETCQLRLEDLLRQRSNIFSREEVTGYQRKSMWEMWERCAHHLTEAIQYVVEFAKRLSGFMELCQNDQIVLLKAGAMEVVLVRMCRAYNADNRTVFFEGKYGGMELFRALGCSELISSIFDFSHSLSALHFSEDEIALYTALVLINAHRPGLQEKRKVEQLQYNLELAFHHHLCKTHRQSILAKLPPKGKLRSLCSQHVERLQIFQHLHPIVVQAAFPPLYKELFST

| Structure (SMILES) | Ki [1] [nM] | IC50 [2] [nM] |
| --- | --- | --- |
| CCS(=O)(=O)c1ccc(CC(=O)Nc2nc3c(s2)CN([C@@H](C)c2ccc(C(F)(F)F)cc2)[C@H]3C(C)C)cc1 [I-A35] | < 100 | < 100 |
| CCS(=O)(=O)c1ccc(CC(=O)Nc2nc3c(s2)CN([C@H](C)c2ccc(C(F)(F)F)cc2F)[C@H]3C(C)C)cc1 [I-A36] | < 100 | < 100 |
| CCS(=O)(=O)c1ccc(CC(=O)Nc2nc3c(s2)CN([C@@H](C)c2ccc(C(F)(F)F)cc2F)[C@H]3C(C)C)cc1 [I-A37] | < 100 | < 100 |
| CCS(=O)(=O)c1ccc(CC(=O)Nc2nc3c(s2)CN([C@H](C)c2ccc(Cl)cc2F)[C@H]3C(C)C)cc1 [I-A38] | < 100 | < 100 |
| CCS(=O)(=O)c1ccc(CC(=O)Nc2nc3c(s2)CN([C@@H](C)c2ccc(Cl)cc2F)[C@H]3C(C)C)cc1 [I-A39] | < 100 | < 100 |
| CCS(=O)(=O)c1ccc(CC(=O)Nc2nc3c(s2)CN(Cc2ccc(-c4nnnn4C)cc2)[C@H]3C(C)C)cc1 [I-A40] | < 100 | < 100 |
| CCS(=O)(=O)c1ccc(CC(=O)Nc2nc3c(s2)CN(C[C@H]2CN(C(=O)OC(C)(C)C)CCO2)[C@H]3C(C)C)cc1 [I-A41] | < 100 | < 100 |
| CCS(=O)(=O)c1ccc(CC(=O)Nc2nc3c(s2)CN(Cc2ccc(-c4nnn(C)n4)cc2)[C@H]3C(C)C)cc1 [I-A42] | < 100 | < 100 |
| CCS(=O)(=O)c1ccc(CC(=O)Nc2nc3c(s2)CN(C[C@@H]2CN(C(=O)OC(C)(C)C)CCO2)[C@H]3C(C)C)cc1 [I-A43] | < 100 | < 100 |
| CCS(=O)(=O)c1ccc(CC(=O)Nc2nc3c(s2)CN(C[C@H]2CC[C@H](C(=O)OC)CC2)[C@H]3C(C)C)cc1 [I-A44] | < 100 | < 100 |
| CCS(=O)(=O)c1ccc(CC(=O)Nc2nc3c(s2)CN(Cc2ccc(C(F)(F)F)cc2C#N)[C@H]3C(C)C)cc1 [I-A45] | < 100 | < 100 |
| CCS(=O)(=O)c1ccc(CC(=O)Nc2nc3c(s2)CN(Cc2ncc(C#N)cc2F)[C@H]3C(C)C)cc1 [I-A46] | < 100 | < 100 |
| CCS(=O)(=O)c1ccc(CC(=O)Nc2nc3c(s2)CN([C@H](C)c2ccc(Cl)cn2)[C@H]3C(C)C)cc1 [I-A47] | < 100 | < 100 |
| CCS(=O)(=O)c1ccc(CC(=O)Nc2nc3c(s2)CN([C@@H](C)c2ccc(Cl)cn2)[C@H]3C(C)C)cc1 [I-A48] | < 100 | < 100 |
| CCS(=O)(=O)c1ccc(CC(=O)Nc2nc3c(s2)CN(Cc2cc(C)c(C#N)cn2)[C@H]3C(C)C)cc1 [I-A49] | < 100 | < 100 |
| CCS(=O)(=O)c1ccc(CC(=O)Nc2nc3c(s2)CN(Cc2ccc(C#N)c(C)n2)[C@H]3C(C)C)cc1 [I-A50] | < 100 | < 100 |
| CCS(=O)(=O)c1ccc(CC(=O)Nc2nc3c(s2)CN(Cc2ccc(C#N)c(OC)n2)[C@H]3C(C)C)cc1 [I-A51] | < 100 | < 100 |
| CCS(=O)(=O)c1ccc(CC(=O)Nc2nc3c(s2)CN([C@H](C)c2ncc(Cl)cc2F)[C@H]3C(C)C)cc1 [I-A53] | < 100 | < 100 |
| CCS(=O)(=O)c1ccc(CC(=O)Nc2nc3c(s2)CN(Cc2ccc(OC(F)F)cn2)[C@H]3C(C)C)cc1 [I-A54] | < 100 | < 100 |
| CCS(=O)(=O)c1ccc(CC(=O)Nc2nc3c(s2)CN(Cc2cnc(C(F)(F)F)nc2)[C@H]3C(C)C)cc1 [I-A58] | < 100 | < 100 |
| CCS(=O)(=O)c1ccc(CC(=O)Nc2nc3c(s2)CN(Cc2ccc(C4CC4)cc2)[C@H]3C(C)C)cc1 [I-A59] | < 100 | < 100 |
| CCS(=O)(=O)c1ccc(CC(=O)Nc2nc3c(s2)CN(Cc2ccc(C(=O)OC)cc2)[C@H]3C(C)C)cc1 [I-A60] | < 100 | < 100 |
| CCS(=O)(=O)c1ccc(CC(=O)Nc2nc3c(s2)CN(Cc2ccc(C(F)F)cc2)[C@H]3C(C)C)cc1 [I-A61] | < 100 | < 100 |

| Structure (SMILES) | Ki [1] [nM] | IC50 [2] [nM] |
| --- | --- | --- |
| CCS(=O)(=O)c1ccc(CC(=O)Nc2nc3c(s2)CN(Cc2ccc(C(F)(F)F)nc2)[C@H]3C(C)C)cc1 [I-A62] | < 100 | < 100 |
| CCc1ccc(CN2Cc3sc(NC(=O)Cc4ccc(S(=O)(=O)CC)cc4)nc3[C@@H]2C(C)C)cc1 [I-A63] | < 100 | < 100 |
| CCS(=O)(=O)c1ccc(CC(=O)Nc2nc3c(s2)CN(Cc2ccc(C)cc2)[C@H]3C(C)C)cc1 [I-A64] | < 100 | < 100 |
| CC(C)[C@H]1c2nc(NC(=O)Cc3ccc(S(C)(=O)=O)cc3)sc2CN1Cc1ccc(Cl)cc1 [I-B1, (S)—N-(5-(4-chlorobenzyl)-4-isopropyl-5,6-dihydro-4H-pyrrolo[3,4-d]thiazol-2-yl)-2-(4-(methylsulfonyl)phenyl)acetamide] | < 100 | < 100 |
| CC(C)[C@H]1c2nc(NC(=O)Cc3ccc(S(C)(=O)=O)cc3)sc2CN1Cc1ccc(C(F)(F)F)cn1 [I-B4] | < 100 | < 100 |
| CC(C)[C@H]1c2nc(NC(=O)Cc3ccc(S(C)(=O)=O)cc3)sc2CN1Cc1ccc(C(F)(F)F)nc1 [I-B5] | < 100 | < 100 |
| Cc1cc(CN2Cc3sc(NC(=O)Cc4ccc(S(C)(=O)=O)cc4)nc3[C@@H]2C(C)C)ccc1C#N [I-B7] | < 100 | < 100 |
| CC(C)[C@H]1c2nc(NC(=O)Cc3ccc(S(C)(=O)=O)cc3)sc2CN1Cc1ccc(C#N)c(Cl)c1 [I-B8] | < 100 | < 100 |
| CC(C)[C@H]1c2nc(NC(=O)Cc3ccc(S(C)(=O)=O)cc3)sc2CN1Cc1ccc(-c2nnn(C)n2)cc1 [I-B9] | < 100 | < 100 |
| CC(C)[C@H]1c2nc(NC(=O)Cc3ccc(S(C)(=O)=O)cc3)sc2CN1[C@@H](C)c1ccc(C#N)cc1Cl [I-B10] | < 100 | < 100 |
| CC(C)[C@H]1c2nc(NC(=O)Cc3ccc(S(C)(=O)=O)cc3)sc2CN1[C@H](C)c1ccc(C#N)c(F)c1 [I-B11] | < 100 | < 100 |
| CC(C)[C@H]1c2nc(NC(=O)Cc3ccc(S(C)(=O)=O)cc3)sc2CN1[C@@H](C)c1ccc(C#N)c(F)c1 [I-B12] | < 100 | < 100 |
| Cc1nc(C(F)(F)F)ccc1CN1Cc2sc(NC(=O)Cc3ccc(S(C)(=O)=O)cc3)nc2[C@@H]1C(C)C [I-B13] | < 100 | < 100 |
| CC(C)[C@H]1c2nc(NC(=O)Cc3ccc(S(C)(=O)=O)cc3)sc2CN1[C@H](C)c1ccc(C#N)cc1 [I-B14] | < 100 | < 100 |
| CC(C)[C@H]1c2nc(NC(=O)Cc3ccc(S(C)(=O)=O)cc3)sc2CN1[C@@H](C)c1ccc(C#N)cc1 [I-B15] | < 100 | < 100 |
| CC(C)[C@H]1c2nc(NC(=O)Cc3ccc(S(C)(=O)=O)cc3)sc2CN1Cc1ccc(C#N)cc1Cl [I-B16] | < 100 | < 100 |
| CC(C)[C@H]1c2nc(NC(=O)Cc3ccc(S(C)(=O)=O)cc3)sc2CN1Cc1ccc(C#N)cc1F [I-B17] | < 100 | < 100 |
| CC(C)[C@H]1c2nc(NC(=O)Cc3ccc(S(C)(=O)=O)cc3)sc2CN1Cc1ccc(C#N)cc1 [I-B18] | < 100 | < 100 |
| CC(C)[C@H]1c2nc(NC(=O)Cc3ccc(S(C)(=O)=O)cc3)sc2CN1Cc1ccc(C(F)(F)F)cc1 [I-B19] | < 100 | < 100 |
| CCS(=O)(=O)c1ccc(CC(=O)Nc2nc3c(s2)CN(Cc2ccc(Cl)cc2)[C@H]3C(C)C)nc1 [I-C1, (S)—N-(5-(4-chlorobenzyl)-4-isopropyl-5,6-dihydro-4H-pyrrolo[3,4-d]thiazol-2-yl)-2-(5-(ethylsulfonyl)pyridin-2-yl)acetamide] | < 100 | < 100 |
| CCS(=O)(=O)c1ccc(CC(=O)Nc2nc3c(s2)CN(Cc2ccc(OC(F)F)cc2)[C@H]3C(C)C)nc1 [I-C2] | < 100 | < 100 |
| CCS(=O)(=O)c1ccc(CC(=O)Nc2nc3c(s2)CN(Cc2ccc(C(F)(F)F)cc2)[C@H]3C(C)C)nc1 [I-C4] | < 100 | < 100 |
| CCS(=O)(=O)c1ccc(CC(=O)Nc2nc3c(s2)CN(C[C@H]2CC[C@@](C)(OC)CC2)[C@H]3C(C)C)nc1 [I-C6] | < 100 | < 100 |
